From PMC9101764, “Synthesis and In Vitro Characterization of Selective Cannabinoid CB2 Receptor Agonists: Biological Evaluation against Neuroblastoma Cancer Cells” (Molecules, 2022)

Legend:
hCB2R [1] = target: T1, hCB2R (Homo sapiens, UniProt P34972); assay: HitHunter cAMP assay: inhibition of FSK-stimulated cAMP accumulation in CHO cells; assay type: cell-based
T1 construct: host or cells: HitHunter CHO-K1 cells
Description: For the cAMP inhibition assay, cells were treated with 10 μM FSK and synthetized compounds for 90 min to assess compound concentration-dependent activity.
(§1) CHO cells stably expressing hCB1R or hCB2R were maintained at 37 °C and 5% CO2 in Gibco Ham’s F-12 nutrient mix (Fisher Scientific, Loughborough, UK ) supplemented with 2 mM L-glutamine, 10% fetal bovine serum (FBS), 0.6% penicillin−streptomycin (Fisher Scientific, Loughborough UK), and the disulfate salt of geneticin (G418) as previously described (Sigma-Aldrich, Poole, UK). For subsequent radioligand displacement assays, membranes were prepared by scraping cells from flasks, centrifuging the cells, and storing the cell pellet at −20 °C. When required for us, cell pellets were defrosted and diluted in tris buffer (50 mM Tris-HCl and 50 mM Tris-base). As we have described in previous studies, HitHunter (cAMP) and PathHunter (βarrestin2) CHO-K1 cells stably expressing hCB1R or hCB2R from DiscoveRx® (Eurofins, Fremont, CA, USA) were maintained at 37 °C, 5% CO2 in F-12 DMEM containing 10% FBS and 1% Pen/Strep with 800 µg/mL geneticin (HitHunter) or 800 µg/mL G418 and 300 µg/mL hygromycin B (PathHunter).
The quantification of FSK-stimulated cAMP accumulation using the DiscoveRx HitHunter assay (DiscoveRx, Eurofins, Fremont, CA, USA) has been described in detail previously elsewhere. Briefly, 20,000 cells/well were plated in low-volume 96-well plates and incubated overnight in Opti-MEM with 1% FBS at 37 °C and 5% CO2. The next day, the media were replaced with cell assay buffer (DiscoveRx). Immediately after this, the cells were simultaneously treated with 10 µM FSK and ligands for 90 min. Subsequent additions of cAMP antibody solution and cAMP working detection solutions followed the manufacturer’s directions (DiscoveRx) and cells were stored for 60 min at room temperature. cAMP solution A (DiscoveRx) was added according to the manufacturer’s directions followed by another 60 min room temperature incubation prior to chemiluminescence being measured on a Cytation5 plate reader (top read, gain 200, integration time 10,000 ms).
(§2) Estimates of Ki, EC50, and Emax were determined using non-linear regression three-parameters (GraphPad, Prism, v. 9.0).
(§3) Data are fitted to a non−linear regression (three parameter model, GraphPad v. 9.0). Data are mean ± S.E.M. of 6 independent experiments performed in triplicate.

hCB2R [2] = target: T1, hCB2R; assay: PathHunter β-arrestin2 recruitment assay in CHO cells; assay type: cell-based
Description: Compounds FG158a, FG160a, FG161a, and LV62 were also evaluated for their ability to recruit β-arrestin2, since G protein-coupled receptors also interact with β-arrestin, which facilitates receptor internalization, recycling, degradation, and signaling.
as §1
The quantification of β-arrestin2 recruitment using the DiscoveRx PathHunter assay has been described by our group previously and is summarized here.. Twenty thousand cells/well were grown overnight in Opti-MEM containing 1% FBS at 37 °C and 5% CO2 in low-volume 96 well plates. The next day, cells were treated with compounds for 90 min at 37 °C. Detection solution was added to cells according to the manufacturer’s directions (DiscoveRx) and cells were stored for 60 min at room temperature. After this incubation, chemiluminescence was quantified on a Cytation5 plate reader (top read, gain 200, integration time 10,000 ms).
as §2, §3

hCB1R = target: T2, hCB1R (Homo sapiens, UniProt P21554); assay: [3H]CP55,940 radioligand displacement assay, CHO cell membranes; assay type: binding
T2 construct: expressed in transfected cells; host or cells: CHO cells (membranes)
Description: as §1
(§4) We have previously described radioligand displacement assays in detail. […] Binding reactions were terminated by ice-cold tris binding buffer and subsequent vacuum filtration (24-well sampling manifold (Brandel cell harvester; Brandel Inc., Gaithersburg, MD, USA)) using Brandel GF/B filters soaked in wash buffer at 4 °C for at least 24 h. Filters were washed with 1.2 mL of tris-binding buffer six times, then oven-dried for 60 min before being incubated in 3 mL of scintillation fluid (Ultima Gold XR, PerkinElmer, Seer Green, Buckinghamshire, UK). Radioactivity was quantified by liquid scintillation spectrometry. All compounds were first prepared at 10 mM solutions in DMSO. The final vehicle concentration for assays was 0.1% DMSO. All assays were performed in duplicate.
as §2

hCB2R [3] = target: T1, hCB2R; assay: as above; assay type: binding
Description: as §1, §4, §2

[4] = CHO membranes, 0.1 nM-10 μM compounds

T1 sequence (P34972 whole entry): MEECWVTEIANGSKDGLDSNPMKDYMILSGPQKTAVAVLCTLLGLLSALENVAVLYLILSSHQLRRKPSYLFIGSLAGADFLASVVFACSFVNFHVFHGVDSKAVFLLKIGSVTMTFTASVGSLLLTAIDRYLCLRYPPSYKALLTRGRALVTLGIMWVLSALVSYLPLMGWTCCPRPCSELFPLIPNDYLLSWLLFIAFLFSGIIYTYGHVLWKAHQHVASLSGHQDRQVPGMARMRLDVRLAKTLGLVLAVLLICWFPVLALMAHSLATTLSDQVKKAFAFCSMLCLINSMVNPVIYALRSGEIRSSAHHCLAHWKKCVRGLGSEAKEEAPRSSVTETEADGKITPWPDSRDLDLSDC
T2 sequence (P21554 whole entry): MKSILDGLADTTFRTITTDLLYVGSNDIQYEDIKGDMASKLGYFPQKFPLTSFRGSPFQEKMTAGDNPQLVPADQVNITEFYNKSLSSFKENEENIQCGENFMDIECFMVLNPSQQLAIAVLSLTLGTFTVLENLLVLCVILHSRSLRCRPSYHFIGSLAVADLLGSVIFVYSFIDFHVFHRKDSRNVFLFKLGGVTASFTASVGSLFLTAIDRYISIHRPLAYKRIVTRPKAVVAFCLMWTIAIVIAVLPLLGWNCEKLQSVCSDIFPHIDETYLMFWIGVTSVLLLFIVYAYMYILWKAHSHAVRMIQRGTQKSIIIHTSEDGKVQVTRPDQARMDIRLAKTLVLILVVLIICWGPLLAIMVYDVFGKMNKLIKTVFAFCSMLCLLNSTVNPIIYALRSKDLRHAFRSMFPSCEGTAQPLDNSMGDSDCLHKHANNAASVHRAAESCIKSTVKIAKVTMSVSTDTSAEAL

For `CC1CCC(NC(=O)c2cc3cccnc3n(CCCCCBr)c2=O)CC1` (stereo not drawn) [FG158a, 1-(5-bromopentyl)-N-(4-methylcyclohexyl)-2-oxo-1,2-dihydro-1,8-naphthyridine-3-carboxamide], the melting point was 121 to 123 °C, the EC50 (hCB2R [1]) was greater than 10 µM and the “modulation of cAMP response” value (hCB2R [1]; CHO cells expressing hCB2R, 10 μM FSK, 90 min) was “not to affect this signaling pathway”. For the same compound, the EC50 (hCB2R [2]) was greater than 10 µM, the “β-Arrestin2 Recruitment Emax (% CP55,940) ± S.E.M” value (hCB2R [2]; CHO cells expressing human CB2R, 90 min) was 46 ± 1.8 % CP55,940 and the Ki (hCB1R) was greater than 10 µM. The “displacement of [3H]CP55,940 at hCB1R” value (hCB1R; [4]) was “not able to displace [^3H]CP55,940”, the Ki (hCB2R [3]) was 0.021 µM and the “displacement of [3H]CP55,940 at hCB2R” value (hCB2R [3]; [4]) was “fully displaced [^3H]CP55,940”.
